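Cultured in 96-well plates, cells were exposed to test compound for 48 hours across five concentrations. GI50 marks 50% less growth.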 Active and inactive are the calls of the source. No stated cut-off is given here; in the data, active = GI50 up to about 1.1 µM and inactive = higher.
Assays:
Assay in all cases: growth of human tumour cells (NCI), 48 h
[1] = tested on: CCRF-CEM
[2] = tested on: EKVX
[3] = tested on: NCI-H460
[4] = tested on: HCT-15
[5] = tested on: Hs-578T
[6] = tested on: M14
[7] = tested on: 786-0
[8] = tested on: MDA-N
[9] = tested on: NCI-H522
[10] = tested on: SN12C
[11] = tested on: KM12
[12] = tested on: PC-3
[13] = tested on: HL-60
[14] = tested on: HT-29
[15] = tested on: OVCAR-4
[16] = tested on: A498
[17] = tested on: SK-MEL-2
[18] = tested on: TK-10
[19] = tested on: COLO 205
[20] = tested on: XF498

SMILES | GI50 [1] | GI50 [2] | GI50 [3] | GI50 [4] | GI50 [5] | GI50 [6] | GI50 [7] | GI50 [8] | GI50 [9] | GI50 [10] | GI50 [11] | GI50 [12] | GI50 [13] | GI50 [14] | GI50 [15] | GI50 [16] | GI50 [17] | GI50 [18] | GI50 [19] | GI50 [20]
COc1ccc2cc(CNCCCCCCCCCCCCNCc3ccc4cc(OC)ccc4c3)ccc2c1 | 9.46 µM (inactive) | 20.3 µM (inactive) | 17.3 µM (inactive) | 17.6 µM | 15.9 µM (inactive) | 17.4 µM (inactive) | 16.5 µM (inactive) | 21.4 µM (inactive) | 18.9 µM (inactive) | 19.7 µM (inactive) | 19.2 µM (inactive) | 28.3 µM (inactive) | 10.4 µM (inactive) | 8.49 µM (inactive) | 16.4 µM (inactive) | 18 µM (inactive) | 22.5 µM (inactive) | 18.8 µM (inactive) | 16.4 µM (inactive) | 
O=c1cc(O)ccn1C1C=C(CO)C(O)C1O (configuration not stated) | > 625 µM (inactive) |  | 131 µM (inactive) | > 625 µM |  |  |  |  |  | 586 µM (inactive) | > 625 µM (inactive) |  | 183 µM (inactive) | > 625 µM (inactive) | > 625 µM (inactive) |  | > 625 µM (inactive) |  |  | < 0.0625 µM (active)
COc1cc2c3c(c4ccc(O)cc4c2cc1OC)[C@@H](O)[C@@H]1CCCN1C3 | < 0.001 µM (active) | < 0.001 µM (active) | < 0.001 µM (active) | < 0.001 µM | < 0.001 µM (active) | < 0.001 µM (active) | < 0.001 µM (active) | < 0.001 µM (active) | < 0.001 µM (active) | < 0.001 µM (active) | < 0.001 µM (active) | 0.0019 µM (active) | 0.00116 µM (active) | 0.00233 µM (active) | < 0.001 µM (active) | < 0.001 µM (active) | < 0.001 µM (active) | 0.00106 µM (active) | 0.0178 µM (active) | 
N#C/C(=C\c1ccc(C(O)P(=O)(O)O)cc1)C(N)=O (configuration not stated) | 9.93 µM (inactive) | > 100 µM (inactive) | 6.44 µM (inactive) | > 100 µM |  | > 100 µM (inactive) | 29.8 µM (inactive) |  | > 100 µM (inactive) | > 100 µM (inactive) | > 100 µM (inactive) |  | 6.01 µM (inactive) | > 100 µM (inactive) | > 100 µM (inactive) | > 100 µM (inactive) | > 100 µM (inactive) | > 100 µM (inactive) | > 100 µM (inactive) | > 100 µM (inactive)
COc1cc[n+](C)cc1 | > 100 µM (inactive) | > 100 µM (inactive) | > 100 µM (inactive) | > 100 µM |  |  |  |  | > 100 µM (inactive) | > 100 µM (inactive) | > 100 µM (inactive) |  | > 100 µM (inactive) | > 100 µM (inactive) | > 100 µM (inactive) |  | > 100 µM (inactive) |  | > 100 µM (inactive) | > 100 µM (inactive)
O=c1[nH]c2ccccc2n1CCCN1CCC(n2c(=O)[nH]c3cc(Cl)ccc32)CC1 [DOMPERIDONE] | 27.8 µM (inactive) | 22.8 µM (inactive) | 17.4 µM (inactive) | 18.7 µM | 19.6 µM (inactive) | 16 µM (inactive) | 14.4 µM (inactive) | 15.8 µM (inactive) | 15.4 µM (inactive) | 16.3 µM (inactive) | 16.9 µM (inactive) | 19.4 µM (inactive) | 17.3 µM (inactive) | 14.6 µM (inactive) | 17.2 µM (inactive) | 23 µM (inactive) | 19.2 µM (inactive) | 20.2 µM (inactive) | 12.7 µM (inactive) | 
Cc1c(/C=N/NC(=O)c2ccccc2O)c(=O)n(-c2ccccc2)n1C | 50.2 µM (inactive) | 49.2 µM (inactive) | 47.1 µM (inactive) | 29.2 µM |  | > 100 µM (inactive) | > 100 µM (inactive) |  | > 100 µM (inactive) | > 100 µM (inactive) | > 100 µM (inactive) |  | 28.1 µM (inactive) | > 100 µM (inactive) | > 100 µM (inactive) |  | > 100 µM (inactive) | > 100 µM (inactive) | > 100 µM (inactive) | > 100 µM (inactive)
CC(=O)C(/N=N\C1CCC(S(=O)(=O)NB2N=CS2)CC1)C(=O)Nc1ccccc1C (configuration not stated) | 19 µM (inactive) | 19.3 µM (inactive) | 15.8 µM (inactive) | 10.5 µM |  | 19.2 µM (inactive) |  |  | 15.3 µM (inactive) | 17.4 µM (inactive) | 16 µM (inactive) |  | > 100 µM (inactive) | 16 µM (inactive) | 12.8 µM (inactive) | 16.7 µM (inactive) | 17.9 µM (inactive) | 25.6 µM (inactive) | 20.9 µM (inactive) | 16.9 µM (inactive)
COc1ccc(-c2c(-c3ccccc3)c(C)nc3nc(SC)nc(SC)c23)cc1OC | 4.26 µM (inactive) | 15.6 µM (inactive) | 2.12 µM (inactive) | 8.2 µM | 5.05 µM (inactive) | 22.8 µM (inactive) |  | 8.99 µM (inactive) | 4.61 µM (inactive) | 7.4 µM (inactive) | 18.1 µM (inactive) | 4.29 µM (inactive) | 3.14 µM (inactive) | 5.71 µM (inactive) |  | 15.7 µM (inactive) | 17.1 µM (inactive) | 23.6 µM (inactive) | 11.6 µM (inactive) | 
COC(=O)[C@@H](NC1(c2ccccc2)c2ccccc2-c2ccccc21)[C@@H](C(=O)OC)N(NC(=O)OCc1ccccc1)C(=O)OCc1ccccc1.COC(=O)[C@@H](NC1(c2ccccc2)c2ccccc2-c2ccccc21)[C@H](C(=O)OC)N(NC(=O)OCc1ccccc1)C(=O)OCc1ccccc1 | > 100 µM (inactive) | 21.4 µM (inactive) | > 100 µM (inactive) | > 100 µM | > 100 µM (inactive) | > 100 µM (inactive) | > 100 µM (inactive) | > 100 µM (inactive) | 29.2 µM (inactive) | > 100 µM (inactive) | > 100 µM (inactive) | > 100 µM (inactive) | > 100 µM (inactive) | > 100 µM (inactive) | > 100 µM (inactive) | > 100 µM (inactive) | > 100 µM (inactive) | > 100 µM (inactive) | > 100 µM (inactive) | 
C[C@H]1C(=O)O[C@@H]2CCN3CC=C(COC(=O)[C@](C)(O)[C@@]1(C)O)[C@H]23 | > 100 µM (inactive) | > 100 µM (inactive) | > 10 µM (inactive) | > 100 µM | > 100 µM (inactive) | > 100 µM (inactive) | > 100 µM (inactive) | > 100 µM (inactive) | > 100 µM (inactive) | > 100 µM (inactive) | > 100 µM (inactive) | > 100 µM (inactive) | > 100 µM (inactive) | > 100 µM (inactive) | > 100 µM (inactive) | > 100 µM (inactive) | > 100 µM (inactive) | > 100 µM (inactive) | > 100 µM (inactive) | 
COC(=O)C1=COC2OC3CC1C2C(C)O3 (configuration not stated) | > 100 µM (inactive) | > 100 µM (inactive) | > 100 µM (inactive) | > 100 µM | > 100 µM (inactive) | > 100 µM (inactive) | > 100 µM (inactive) | > 100 µM (inactive) | > 100 µM (inactive) | > 100 µM (inactive) | > 100 µM (inactive) | > 100 µM (inactive) | > 100 µM (inactive) | > 100 µM (inactive) | > 100 µM (inactive) | > 100 µM (inactive) | > 100 µM (inactive) | > 100 µM (inactive) | > 100 µM (inactive) | 
O=C1CSC2(CC(/C=C/c3cccc([N+](=O)[O-])c3)=NN2c2cccc(S(=O)(=O)O)c2)N1c1nc2ccccc2s1 (configuration not stated) | 20.7 µM (inactive) | 44.8 µM (inactive) | 21.2 µM (inactive) | 18.1 µM | 55.3 µM (inactive) | 30.7 µM (inactive) | 18 µM (inactive) | 25.1 µM (inactive) | 18.3 µM (inactive) | 22.4 µM (inactive) | 22 µM (inactive) | 21.4 µM (inactive) | 28.1 µM (inactive) | 31.4 µM (inactive) | 25.2 µM (inactive) | 20.4 µM (inactive) | 22.9 µM (inactive) | 20 µM (inactive) | 50.8 µM (inactive) | 
